Measurements published in US20070161634A1, “Compounds as CCR5 antagonists” (priority 2004, published 2007).
Where two headings read alike, the source gives them in different places.

Legend:
CCR5 receptor = CCR5 receptor (Homo sapiens, UniProt P51681); experiment: [35S]GTPγS binding assay; format: biochemical
Text: [^35S]GTPγS binding assay
CCR5 receptor binds to agonists and changes its conformation which enables it to interact with and activate G protein, a heterotrimer which consists of subunits α and βγ. The capability of G protein α subunit binding to GTP depends on the effect between CCR5 and the agonists, therefore, the amount of α subunit bound GTP should reflect the agonists activity on the CCR5 receptor. In the GTPγS binding assay, [^35S]GTPγS is resistant to the GTPase activity of α subunit, and thus cannot be hydrolyzed when bound to G protein, making it accurate to reflect the receptor activation. Radiolabled [^35S]GTPγS can also serve as marker for detection in place of GTP. When CCR5 is not activated, α subunit is bound to GDP, but when CCR5 is activated, α subunit binds to [^35S]GTPγS, therefore, measurement of the number of the α subunit-bound ^35S-GTPγS can reflect the CCR5 activation level.
CCR5 activation of G-protein was measured according to assays below:
Permanent cell line expressing CHO of CCR5 (available at Euroscreen S.A., Belgium) was lysed by lysis buffer (5 mM Tris HCl, pH 7.5, 5 mM EDTA and 5 mM EGTA), and centrifuged at 15,000×g for 10 min. Cell membrane was resuspended with reaction buffer (5 mM Tris HCl, pH 7.5, 5 mM MgCl2, 1 mM EGTA, 100 mM NaCl), and protein concentrations were determined using Bioford assay (Bio-rad). [^35S]GTPγS binding assay was performed in the 100 μl reaction buffer system, which contains 10 ug membrane protein, 40 uM GDP and 0.5 nM [^35S]GTPγS (1200 Ci/mmol). After adding the study compounds, the system was vortexed and placed on ice for 5 min, and then CCR5 agonist was added (10 nM RANTES or 30 nM MIP1β). After vortexing, the reaction tubes were incubated at 30° C. for 1 h. After the reaction was complete, the reaction tubes were placed on ice and diluted with PBS to terminate the reaction. After suction through the GF/C filter membrane under vacuum, the membrane bound radioactivity was measured with a scintillation counter. Basal binding was measured without presence of agonist, and non-specific binding was measured in the presence of 10 mM nonisotopical GTPγS. The binding ratio of [^35S]GTPγS was calculated according to 100×[c.p.m.sample−c.p.m. non-specific]/[c.p.m.basal−c.p.m. non-specific]. IC50 was the compound concentration at which half of the [^35S]GTPγS binding induced by 10 nM RANTES or 30 nM MIP1β was inhibited, and the value was obtained from the concentration-inhibition curve (6-7 points for concentrations of each compound).

water solubility = format: physicochemical; conditions: mesylate compared with II-a-a
CCR1 = target: T1, CCR1 (Homo sapiens, UniProt P32246); experiment: effects on the activation of CCR1 receptor; conditions: at the concentration of 10,000 nM
T1 sequence (P32246 1-355): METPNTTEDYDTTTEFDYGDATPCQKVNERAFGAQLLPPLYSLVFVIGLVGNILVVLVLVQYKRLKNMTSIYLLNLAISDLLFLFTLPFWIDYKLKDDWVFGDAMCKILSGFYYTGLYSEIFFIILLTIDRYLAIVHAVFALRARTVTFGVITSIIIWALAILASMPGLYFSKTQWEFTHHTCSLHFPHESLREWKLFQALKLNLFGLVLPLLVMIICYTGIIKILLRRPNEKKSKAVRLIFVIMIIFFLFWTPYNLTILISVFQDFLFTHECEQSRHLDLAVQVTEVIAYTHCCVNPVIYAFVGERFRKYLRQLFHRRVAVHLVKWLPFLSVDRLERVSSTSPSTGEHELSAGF

CXCR4 = CXCR4 (Homo sapiens, UniProt P61073); experiment: effects on the activation of CXCR4 receptor; conditions: at the concentration of 10,000 nM
CXCR4, sequence (P61073 whole entry, species assumed): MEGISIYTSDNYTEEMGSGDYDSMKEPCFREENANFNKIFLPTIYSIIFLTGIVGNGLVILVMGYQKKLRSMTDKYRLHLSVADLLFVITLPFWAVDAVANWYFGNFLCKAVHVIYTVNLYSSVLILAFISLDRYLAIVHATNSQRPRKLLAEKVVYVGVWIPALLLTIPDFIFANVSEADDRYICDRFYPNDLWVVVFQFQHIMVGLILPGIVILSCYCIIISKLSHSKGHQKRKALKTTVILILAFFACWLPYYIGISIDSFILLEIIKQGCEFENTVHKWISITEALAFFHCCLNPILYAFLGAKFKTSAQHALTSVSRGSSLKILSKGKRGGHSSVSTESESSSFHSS

[1] = tested on: peripheral blood monouclear cells (PBMC), Jurket; experiment: MTT cytotoxicity assay; format: cell-based; conditions: at 10,000 nM
Protocol: (§1) C. MTT Cytotoxicity Assay
(§2) Cells were prepared as single cell suspension, and cell densities were adjusted according to the cell size and cell features. Cells were inoculated with 100 ul culture media into 96 well plates, and incubated in 37° C. incubator (5% CO2, saturated humidity). The seeding densities were as follows: peripheral blood monouclear cells (PBMC) 10^5 cells /well, Jurket 4×10^4 cells/well. 24 h after cell inoculation, the compounds to be tested were added and incubated with cells. 48 h after inoculation, 10 μl MTT (Sigma, USA, 5 mg/ml, diluted with PBS and stored at −20° C.) was added to each well, and incubated for another 4 h in 37° C. incubator. Then add 50 μl formazane solvent (10%SDS-5%isopropanol−0.01M HCl) and incubate overnight. Determine OD570/OD630 nm at spectrophotometer, and calculate CC50 according to the inhibition curve.

MTT cytotoxicity assay = format: cell-based; conditions: human, peripheral blood mononuclear cells (PBMC) and Jurkat cells; MTT
Protocol: as §1, §2

[2] = tested on: HEK 293 cells expressing human CCR5 receptors (293CCR5); experiment: Chemotaxis assay; format: cell-based; conditions: chemotaxis caused by 10 nM RANTES, read-out: IC50 on cell chemotaxis
Protocol: The procedures were as follows:
The assay is performed with a 48 well plate (AP48, Neuroprobe Inc., USA) and 8 uM filter membrane (25×80 mm). The filter membrane was pre-immersed in rat tail collagen for at least 2 h. The filter membrane was taken out and dried on a super-clean bench, then the filter membrane was immersed in 0.1% BSA-MEM. HEK 293 cells expressing human CCR5 receptors (293CCR5) (available at Euroscreen S.A., Belgium) were digested with D.T. for 1 min, and pelleted by centrifugation at 200 g. Resuspend the cells in 0.1% BSA-MEM, count and dilute the cell suspension to 3×10^6 cells/ml. Fill each well with 26.5 μl tll of a chemokine dilution or 1% BSA MEM, place the filter membrane and cover a lid on the well, add 50 μl of the cells suspension to each well. When testing the compound antagonism, the compounds to be tested were added to the cell suspension, and pre-incubated at 37° C. for 20 min. Then place the plate in 37° C. incubator, and incubate for 6 h. Take out of the filter membrane and remove the cells in the well, fix the filter membrane in 4% polyformaldehyde solution at 4° C. overnight. The filter membrane was taken out the next day and stained with crystal violet for at least 2 h, then wash with water and allow it to dry. Scan the filter membrane, and calculate the shades with Scion Image. […]

[3] = Table I, [35S]GTPγS binding, read-out: IC50
[4] = [35S]GTPγS binding initiated by 10 nM RANTES, read-out: IC50(nM) ± S.E.

CCR5 receptor, sequence (P51681 whole entry): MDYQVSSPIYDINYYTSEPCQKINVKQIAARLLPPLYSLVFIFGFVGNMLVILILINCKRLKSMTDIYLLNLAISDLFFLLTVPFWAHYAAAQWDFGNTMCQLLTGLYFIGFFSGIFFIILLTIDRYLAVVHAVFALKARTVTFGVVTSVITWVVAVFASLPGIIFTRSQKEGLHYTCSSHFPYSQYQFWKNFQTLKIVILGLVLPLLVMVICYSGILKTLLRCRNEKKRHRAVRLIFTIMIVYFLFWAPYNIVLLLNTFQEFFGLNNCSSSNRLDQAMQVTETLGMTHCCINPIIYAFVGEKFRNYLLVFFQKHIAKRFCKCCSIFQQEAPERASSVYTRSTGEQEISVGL

Structure (SMILES) | IC50 (CCR5 receptor; b360, read-out: IC50) | water solubility increase (water solubility) | IC50 (CCR5 receptor; [3]) | IC50 (CCR5 receptor; [4]) | activation or antagonism of CCR1 receptor (CCR1) | activation or antagonism of CXCR4 receptor (CXCR4) | cytotoxicity on cells [1] | CC50 at 24 h (MTT cytotoxicity assay) | IC50 [2]
CCN(C(=O)OCc1ccccc1)C1CCN(CC2CN(Cc3ccccc3)CC2(O)c2ccccc2)CC1 (stereo not drawn) [mesylate of II-a-a] | 342 ± 72.5 nM | about 10 fold |  |  |  |  |  |  | 
C=CCN(C(=O)OCc1ccc([N+](=O)[O-])cc1)C1CCN(CC2CN(C(=O)c3ccccc3)CC2(O)c2ccccc2)CC1 (stereo not drawn) [III-a-b, 4-nitrobenzyl allyl(1-((1-benzoyl-4-hydroxy-4-phenylpyrrolidin-3-yl)methyl)piperidin-4-yl) carbamate] |  |  | 9.7 ± 0.7 nM | 9.7 ± 0.7 nM | do not activate or antagonize | do not activate or antagonize | no significant cytotoxicity | ~30000 nM | 
C=CCN(C(=O)OCc1ccc([N+](=O)[O-])cc1)C1CCN(CC2CN(C(=O)C3CCCC3)CC2(O)c2ccccc2)CC1 (stereo not drawn) [III-a-e, 4-nitrobenzyl allyl(1-((1-(cyclopentanecarbonyl)-4-hydroxy-4-phenylpyrrolidin-3-yl)methyl)piperidin-4-yl)carbamate] |  |  | 5.3 ± 0.6 nM | 5.3 ± 0.6 nM | do not activate or antagonize | do not activate or antagonize | no significant cytotoxicity | ~30000 nM | ~30 nM
C=CCN(C(=O)OCc1ccc([N+](=O)[O-])cc1)C1CCN(CC2CN(C(=O)C3CCCCC3)CC2(O)c2ccccc2)CC1 (stereo not drawn) [III-a-f, 4-nitrobenzyl allyl(1-((1-(cyclohexanecarbonyl)-4-hydroxy-4-phenylpyrrolidin-3-yl)methyl)piperidin-4-yl)carbamate] |  |  | 7.3 nM | 7.3 ± 0.6 nM | do not activate or antagonize | do not activate or antagonize | no significant cytotoxicity | ~30000 nM | 
C=CCN(C(=O)OCc1ccc([N+](=O)[O-])cc1)C1CCN(CC2CN(C(=O)c3cccc4ccccc34)CC2(O)c2ccccc2)CC1 (stereo not drawn) [III-a-d, 4-nitrobenzyl 1-((1-(1-naphthoyl)-4-hydroxy-4-phenylpyrrolidin-3-yl)methyl)piperidin-4-yl(allyl)carbamate] |  |  | 26.8 ± 2 nM | 26.8 ± 2 nM | do not activate or antagonize | do not activate or antagonize | no significant cytotoxicity | ~30000 nM | 
